Key:
Fer kinase domain = test: pTyr-Var library bacterial peptide display kinase screen (enrichment scores); type: biochemical, mouse; details: sheet "Fer";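 further: log2 fold change in enrichment of variant over reference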
EPHB1 kinase domain = test: as above; type: biochemical, human; details: for Screen: sheet EPHB1, effect of the variant peptide relative to its reference peptide in the pTyr-Var library screen (enrichment scores); for Screen (variant relative to reference peptide, measured in the pTyr-Var library screen): sheet "EPHB1", variant seq vs reference seq, bacterial peptide display enrichment
EPHB2 kinase domain = test: as above; type: biochemical, human; details: sheet EPHB2;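 further: log2 fold change in enrichment of variant over reference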
c-Src kinase domain [1] = target: T1, c-Src kinase domain (Homo sapiens, UniProt P12931); test: as above; type: biochemical; details: sheet "Src"
c-Abl kinase domain = target: T2, c-Abl kinase domain (Mus musculus, UniProt P00520); test: as above; type: biochemical;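 further: log2 fold change in enrichment of variant over reference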
T2 sequence (P00520 242-493 limits assumed): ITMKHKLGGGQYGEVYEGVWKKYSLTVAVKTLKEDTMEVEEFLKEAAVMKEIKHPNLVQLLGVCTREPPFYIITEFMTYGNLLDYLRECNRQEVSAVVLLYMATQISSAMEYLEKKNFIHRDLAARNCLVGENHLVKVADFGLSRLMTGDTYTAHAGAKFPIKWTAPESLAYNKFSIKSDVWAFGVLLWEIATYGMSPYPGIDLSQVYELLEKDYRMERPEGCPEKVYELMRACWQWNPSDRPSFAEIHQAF

c-Src kinase domain [2] = target: T1, c-Src kinase domain; test: ADP-Quest continuous fluorimetric kinase assay (Michaelis-Menten parameters and initial rates); type: biochemical
[3] = target: human c-Src kinase domain (residues 260-528) (human) (UniProt P12931)
[4] = variant peptide relative to its reference peptide, pTyr-Var library screen enrichment
[5] = effect of variant peptide relative to its reference peptide in the pTyr-Var library screen (enrichment scores)
[6] = variant peptide versus its reference peptide in the pTyr-Var library screen
[7] = effect of the variant relative to its reference peptide in the pTyr-Var library screen
[8] = fig5-data2, sheet "Abl", Screen for the variant/reference peptide pair, pTyr-Var library
[9] = sheet "Abl", effect of variant peptide relative to its reference peptide in pTyr-Var library screen (enrichment)
[10] = value of the variant peptide against its reference peptide in the pTyr-Var library screen with Fer
[11] = effect of the variant peptide relative to its reference peptide in the pTyr-Var library screen
[12] = ADP-Quest assay, c-Src kinase domain 10 nM, 100 μM ATP, 37 °C, three to five replicates, error = standard error of global Michaelis-Menten fit

Molecule: KELALYDENWF [RPS19_Y48_P47L]
- Screen (Fer kinase domain; [4]): 3.889
- Screen (EPHB1 kinase domain): 4.03
- Screen (EPHB2 kinase domain; [5]): 4.277

Molecule: HAVFIYDICHV [TWNK_Y508_V507I_YF]
- Screen (c-Src kinase domain [1]; [6]): -0.8811
- Screen (Fer kinase domain; [4]): 0.388
- Screen (variant relative to reference peptide, measured in the pTyr-Var library screen) (EPHB1 kinase domain): 1.032
- Screen (EPHB2 kinase domain; [7]): 1.461

Molecule: FCRHNYGAVES [HLA-DRB1_Y112_V114A_YF]
- Screen (EPHB2 kinase domain; [5]): -2.259

Molecule: DDFDLYGGEKF [PTPN11_Y66_Y62D_YF]
- Screen (c-Src kinase domain [1]; [6]): -0.3825
- Screen (c-Abl kinase domain; [8]): -0.3703
- Screen (Fer kinase domain; [4]): 1.351

Molecule: DLHGIYQKLVI [TTN_Y21998_R21995H]
- Screen (c-Src kinase domain [1]; [6]): 0.02812
- Screen (c-Abl kinase domain; [9]): -2.013
- Screen (Fer kinase domain; [4]): 0.5861
- Screen (variant relative to reference peptide, measured in the pTyr-Var library screen) (EPHB1 kinase domain): 1.244
- Screen (EPHB2 kinase domain; [7]): 1.178

Molecule: ADRLEYSRTGL [MMUT_Y287_G284R]
- Screen (EPHB2 kinase domain; [5]): -0.9943

Molecule: ISKTWYSAEQF [CD207_Y217_P213S]
- Screen (EPHB1 kinase domain): -0.7306
- Screen (EPHB2 kinase domain; [5]): -0.7343

Molecule: LNPFIYSLRNC [OR1A2_Y288_W293C]
- Screen (c-Src kinase domain [1]; [6]): -0.4787
- Screen (Fer kinase domain; [10]): -1.075
- Screen (EPHB1 kinase domain): -1.104

Molecule: QTPVLYAMLFH [MPZ_Y220_D224Y_YF]
- Screen (c-Src kinase domain [1]; [11]): -0.1434
- Screen (Fer kinase domain; [10]): -0.58
- Screen (EPHB1 kinase domain): -0.7178
- Screen (EPHB2 kinase domain; [5]): -1.088

Molecule: EPFELYCEMGS [CBL_Y371_Q367P_YF]
- Screen (EPHB1 kinase domain): -0.3443
- Screen (EPHB2 kinase domain; [5]): -0.2507

Molecule: PLFGEYFTLQI [TP53_Y327_D324Y_YF]
- Screen (c-Src kinase domain [1]; [6]): 1.11
- Screen (variant relative to reference peptide, measured in the pTyr-Var library screen) (EPHB1 kinase domain): 1.054
- Screen (EPHB2 kinase domain; [7]): 0.9055

Molecule: IMNLLYHVVGW [GBA_Y412_T408M]
- Screen (c-Src kinase domain [1]; [11]): 0.1521
- Screen (Fer kinase domain; [10]): -0.4668
- Screen (EPHB1 kinase domain): -0.2669
- Screen (EPHB2 kinase domain; [5]): -0.4774

Molecule: ADARMYGVHPW [PLP1_Y207_L210H]
- Screen (c-Src kinase domain [1]; [6]): -0.8602
- Screen (EPHB2 kinase domain; [5]): -2.321

Molecule: LPHVIYCRLWC [SMAD2_Y128_R133C]
- Screen (c-Src kinase domain [1]; [6]): 1.251
- Screen (variant relative to reference peptide, measured in the pTyr-Var library screen) (EPHB1 kinase domain): 2.05
- Screen (EPHB2 kinase domain; [5]): 1.893

Molecule: NSNSDYVDILP [SH2D1B_Y127_V130I]
- Screen (variant relative to reference peptide, measured in the pTyr-Var library screen) (EPHB1 kinase domain): -0.2012
- Screen (EPHB2 kinase domain; [5]): 0.0762

Molecule: REGKIYEFNQV [ZNF665_Y162_H157R_YF]
- Screen (c-Src kinase domain [1]; effect of the variant peptide against its reference peptide, seen in the pTyr-Var library screen): -1.072
- Screen (c-Abl kinase domain; [9]): -1.605
- Screen (Fer kinase domain; [4]): -0.7739

Molecule: VATRWYWSPEL [CDKL5_Y177_R178W]
- Screen (EPHB1 kinase domain): 3.423
- Screen (EPHB2 kinase domain; [5]): 2.978

Molecule: Ac-GPDEPIYEWWWIKKKG-NH2 [Fer Consensus, Fer consensus substrate peptide from X5-Y-X5 screen]
- Km (c-Src kinase domain [2]; [12]): 8 ± 4 µM
- kcat (c-Src kinase domain [2]; [12]): 0.4±0.1 s^–1
- phosphorylation of consensus peptide by c-Src (initial rate relative to cognate consensus) (c-Src kinase domain [2]; low concentration: peptide 20 μM, kinase 10–50 nM, Figure 2—figure supplement 2): significant off-target activity

Molecule: PLDGEYFTLPI [TP53_Y327_Q331P]
- Screen (c-Src kinase domain [1]; [6]): 1.231
- Screen (Fer kinase domain; [4]): 0.4845
- Screen (variant relative to reference peptide, measured in the pTyr-Var library screen) (EPHB1 kinase domain): 3.664
- Screen (EPHB2 kinase domain; [7]): 3.847

Molecule: KKHIPYSEHKS [CSNK1G2_Y206_R207S]
- Screen (Fer kinase domain; [10]): -1.379
- Screen (EPHB1 kinase domain): -1.865

Molecule: QNTGFYFDLFG [PTPN11_Y62_D61Y_YF]
- Screen (c-Src kinase domain [1]; [6]): -1.182
- Screen (EPHB1 kinase domain): -3.875
- Screen (EPHB2 kinase domain; [5]): -4.029

Molecule: LDVGEYCVPRG [BEX1_Y43_A40V]
- Screen (EPHB1 kinase domain): -0.3957
- Screen (EPHB2 kinase domain; [5]): -0.4602

Molecule: GNLLIYTEFGN [HGD_Y166_K171N]
- Screen (c-Src kinase domain [1]; [11]): -0.3322
- Screen (EPHB1 kinase domain): 0.6139
- Screen (EPHB2 kinase domain; [5]): 0.7326

Molecule: MARDIYQASFF [LTK_Y672_R673Q_YF]
- Screen (c-Src kinase domain [1]; [11]): 3.363
- Screen (Fer kinase domain; [10]): 3.102
- Screen (EPHB1 kinase domain): 2.318
- Screen (EPHB2 kinase domain; [5]): 1.961

Molecule: CEQELYSQLVF [WAS_Y102_W97C_YF]
- Screen (c-Src kinase domain [1]; [6]): -0.1333
- Screen (c-Abl kinase domain; [9]): -3.187
- Screen (Fer kinase domain; [4]): -0.3985
- Screen (variant relative to reference peptide, measured in the pTyr-Var library screen) (EPHB1 kinase domain): -2.23
- Screen (EPHB2 kinase domain; [7]): -2.338

Molecule: PSAELYSFALP [PDGFRB_Y716_N718Y_YF]
- Screen (c-Src kinase domain [1]; [6]): 2.409
- Screen (Fer kinase domain; [10]): 1.182
- Screen (EPHB1 kinase domain): 2.14
- Screen (EPHB2 kinase domain; [5]): 2.567

Molecule: TSSAVYMNLAS [GATAD2B_Y317_I316V]
- Screen (c-Src kinase domain [1]; [11]): -0.9997
- Screen (Fer kinase domain; [10]): -2.177
- Screen (EPHB1 kinase domain): -2.461
- Screen (EPHB2 kinase domain; [5]): -2.447

Molecule: KAPPTYDNVLQ [CYP3A4_Y347_T349N]
- Screen (Fer kinase domain; [10]): -0.1979
- Screen (EPHB1 kinase domain): -0.1539
- Screen (EPHB2 kinase domain; [5]): -1.141

Molecule: Ac-IGEGTYRTVFK-NH2 [CDK5_Y15_G16R, pTyr-Var library variant phosphosite peptide]
- Screen (c-Src kinase domain [1]; [11]): -3.502
- Screen (EPHB2 kinase domain; [5]): -2.132

Molecule: LDAFIYNAAVL [GRIN2A_Y730_D731N]
- Screen (c-Src kinase domain [1]; [11]): -1.489
- Screen (Fer kinase domain; [10]): -3.433
- Screen (EPHB1 kinase domain): -1.471
- Screen (EPHB2 kinase domain; [5]): -1.324

Molecule: LTERGYSFTTK [ACTG1_Y198_T203K]
- Screen (Fer kinase domain; [10]): 1.86
- Screen (EPHB1 kinase domain): 1.554
- Screen (EPHB2 kinase domain; [5]): 1.886

Molecule: PLDGEYFILQI [TP53_Y327_T329I]
- Screen (c-Src kinase domain [1]; [6]): -0.4119
- Screen (variant relative to reference peptide, measured in the pTyr-Var library screen) (EPHB1 kinase domain): 0.4645
- Screen (EPHB2 kinase domain; [7]): 0.5203

Molecule: TESALYGCTVV [KIAA1804_Y724_L729V]
- Screen (c-Src kinase domain [1]; [11]): -0.09726
- Screen (Fer kinase domain; [10]): 0.07488

Molecule: FAELVYTVFWH [ASS1_Y322_G324V]
- Screen (c-Src kinase domain [1]; [11]): 0.03298
- Screen (Fer kinase domain; [10]): -0.2764
- Screen (EPHB1 kinase domain): 0.03348
- Screen (EPHB2 kinase domain; [5]): 0.0379

Molecule: SMEGLYSSAQD [CLIC5_Y111_T114A]
- Screen (c-Src kinase domain [1]; [11]): 0.03653
- Screen (Fer kinase domain; [10]): 0.3754
- Screen (EPHB1 kinase domain): -0.2291
- Screen (EPHB2 kinase domain; [5]): -0.2512

Molecule: MSSLFYANALF [HOXB7_Y6_T9A_YF]
- Screen (c-Abl kinase domain; [8]): 1.131
- Screen (Fer kinase domain; [10]): -0.9977

Molecule: HNELFYEAAEH [VANGL1_Y345_E347A_YF]
- Screen (c-Src kinase domain [1]; [6]): 1.947
- Screen (Fer kinase domain; [4]): 1.287

Molecule: HKDNNYISMWF [PAPOLG_Y432_V433I]
- Screen (Fer kinase domain; [10]): -1.378
- Screen (EPHB1 kinase domain): -1.294
- Screen (EPHB2 kinase domain; [5]): -1.118

Molecule: FGSIMYEFVGK [SLC18A1_Y251_V249I]
- Screen (c-Src kinase domain [1]; [6]): -1.273
- Screen (Fer kinase domain; [4]): -0.674
- Screen (variant relative to reference peptide, measured in the pTyr-Var library screen) (EPHB1 kinase domain): -1.716
- Screen (EPHB2 kinase domain; [5]): -1.759

Molecule: Ac-GPDEPIYEWWWIKKKG-NH2 [Fer Consensus peptide Ac-…-NH2]
- KM (μM) of phosphorylation, Michaelis-Menten analysis, ADP-Quest assay [3]: 8 µM

Source: paper PMC10065799, “High-throughput profiling of sequence recognition by tyrosine kinases and SH2 domains using bacterial peptide display” (eLife, 2023)
